In ChEMBL document CHEMBL5360661, “Structure-Activity Relationship Study of 1H-Pyrrole-3-carbonitrile Derivatives as STING Receptor Agonists” (ACS Med Chem Lett, 2023):
Activity calls are given as the source filed them. The calls are words filed in the database; no cut-off is given here.

Assays:
Homo sapiens [1] = species: Homo sapiens; test: (§1) Binding affinity to recombinant human STING R232H variant C-terminal domain (139 to 378 residues) expressed in Escherichia coli BL21 (DE3) cells assessed as thermal stabilization by measuring change in melting temperature at 50 uM incubated at 25 to 95 degreeC for 45 mins by SYPRO orange dye based fluorescence analysis
[2] = target: T1, Stimulator of interferon genes protein (Homo sapiens, UniProt Q86WV6); test: Agonist activity at STING in PMA-differentiated wildtype human THP1-Blue ISG cells harboring IRF-inducible SEAP reporter construct incubated for 24 hrs by QUANTI-Blue assay; assay type: cell-based
Target sequence in this assay (Q86WV6 whole entry): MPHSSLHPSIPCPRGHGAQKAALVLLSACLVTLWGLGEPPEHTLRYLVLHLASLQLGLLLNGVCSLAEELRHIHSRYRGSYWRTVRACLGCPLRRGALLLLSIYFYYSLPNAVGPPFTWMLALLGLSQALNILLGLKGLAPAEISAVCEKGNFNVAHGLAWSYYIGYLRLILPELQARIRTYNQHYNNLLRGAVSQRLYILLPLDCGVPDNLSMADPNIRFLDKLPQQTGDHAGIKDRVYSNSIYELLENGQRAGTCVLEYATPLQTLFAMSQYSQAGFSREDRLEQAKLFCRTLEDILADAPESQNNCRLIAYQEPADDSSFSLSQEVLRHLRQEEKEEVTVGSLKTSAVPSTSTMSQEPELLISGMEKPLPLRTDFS

[3] = system: Stimulator of interferon genes protein (Homo sapiens), Q86WV6 [UNDEFINED MUTATION]; test: as §1, with “recombinant wildtype” for “recombinant”, “R232” for “R232H”
Homo sapiens [4] = species: Homo sapiens; test: as §1, with “G230A and R293Q” for “R232H”
Homo sapiens [5] = species: Homo sapiens; test: as §1, with “R293Q” for “R232H”
[6] = target: T2, Stimulator of interferon genes protein (Mus musculus) (UniProt Q3TBT3); test: as §1, with “6-His tagged mouse” for “human”, “STING” for “STING R232H variant”, “(144” for “(139”
T2 sequence (whole entry): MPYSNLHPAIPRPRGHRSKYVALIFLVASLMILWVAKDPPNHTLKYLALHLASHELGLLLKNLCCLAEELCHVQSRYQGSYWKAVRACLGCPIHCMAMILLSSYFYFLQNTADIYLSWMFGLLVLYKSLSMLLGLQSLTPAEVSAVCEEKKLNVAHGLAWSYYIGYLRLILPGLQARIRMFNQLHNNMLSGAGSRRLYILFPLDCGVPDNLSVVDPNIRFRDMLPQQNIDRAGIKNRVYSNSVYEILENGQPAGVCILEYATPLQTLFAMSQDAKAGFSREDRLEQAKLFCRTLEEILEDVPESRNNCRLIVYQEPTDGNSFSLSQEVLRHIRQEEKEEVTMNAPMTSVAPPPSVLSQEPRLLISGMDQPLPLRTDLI

[7] = target: T1, Stimulator of interferon genes protein; test: Competitive inhibition of 5-FAM labelled diABZI binding to recombinant wildtype human STING R232 variant C-terminal domain (139 to 378 residues) expressed in Escherichia coli BL21 (DE3) cells incubated for 10 mins by fluorescence polarization assay
Target sequence in this assay (Q86WV6 whole entry, looked up, stated change not applied): as the sequence (Q86WV6 whole entry) above

[8] = Competitive inhibition of 5-FAM labelled diABZI binding to recombinant human STING R232H variant C-terminal domain (139 to 378 residues) expressed in Escherichia coli BL21 (DE3) cells incubated for 10 mins by fluorescence polarization assay
[9] = Competitive inhibition of 5-FAM labelled diABZI binding to recombinant human STING G230A and R293Q variant C-terminal domain (139 to 378 residues) expressed in Escherichia coli BL21 (DE3) cells incubated for 10 mins by fluorescence polarization assay
[10] = Competitive inhibition of 5-FAM labelled diABZI binding to recombinant human STING R293Q variant C-terminal domain (139 to 378 residues) expressed in Escherichia coli BL21 (DE3) cells incubated for 10 mins by fluorescence polarization assay
[11] = target: T3, Stimulator of interferon genes protein (Mus musculus, UniProt Q3TBT3); test: Competitive inhibition of 5-FAM labelled diABZI binding to recombinant 6-his tagged mouse STING C-terminal domain (144 to 378 residues) expressed in Escherichia coli BL21 (DE3) cells incubated for 10 mins by fluorescence polarization assay
T3 sequence (Q3TBT3 whole entry): T2 sequence (whole entry)

[12] = target: T1, Stimulator of interferon genes protein; test: Activation of cGAS-STING pathway in wildtype human THP1-Blue ISG cells assessed as induction of STING phosphorylation at Ser366 residue at 15 uM incubated upto 6 hrs by Western blot analysis; assay type: cell-based; conditions: filed as activator
Target sequence in this assay (Q86WV6 whole entry): as the sequence (Q86WV6 whole entry) above

[13] = target: T1, Stimulator of interferon genes protein; test: Activation of cGAS-STING pathway in wildtype human THP1-Blue ISG cells assessed as induction of TBK1 phosphorylation at Ser172 residue at 15 uM incubated upto 6 hrs by Western blot analysis; assay type: cell-based; conditions: filed as activator
Target sequence in this assay (Q86WV6 whole entry): as the sequence (Q86WV6 whole entry) above

[14] = target: T1, Stimulator of interferon genes protein; test: Activation of cGAS-STING pathway in wildtype human THP1-Blue ISG cells assessed as induction of IRF3 phosphorylation at Ser396 residue at 15 uM incubated upto 6 hrs by Western blot analysis; assay type: cell-based; conditions: filed as activator
Target sequence in this assay (Q86WV6 whole entry): as the sequence (Q86WV6 whole entry) above

[15] = target: T1, Stimulator of interferon genes protein; test: Activation of cGAS-STING pathway in wildtype human THP1-Blue ISG cells assessed as induction of p65 phosphorylation at Ser536 residue at 15 uM incubated upto 6 hrs by Western blot analysis; assay type: cell-based; conditions: filed as activator
Target sequence in this assay (Q86WV6 whole entry): as the sequence (Q86WV6 whole entry) above

[16] = target: T1, Stimulator of interferon genes protein; test: Activation of cGAS-STING pathway in wildtype human THP1-Blue ISG cells assessed as induction of STAT3 phosphorylation at Tyr705 residue at 15 uM incubated upto 6 hrs by Western blot analysis; assay type: cell-based; conditions: filed as activator
Target sequence in this assay (Q86WV6 whole entry): as the sequence (Q86WV6 whole entry) above

[17] = target: T1, Stimulator of interferon genes protein; test: Activation of cGAS-STING pathway in human THP1-Dual KO-cGAS cells assessed as induction of STING phosphorylation at Ser366 residue at 15 uM incubated for 1 hrs by Western blot analysis; assay type: cell-based; conditions: filed as activator
[18] = target: T1, Stimulator of interferon genes protein; test: Activation of cGAS-STING pathway in human THP1-Dual KO-cGAS cells assessed as induction of TBK1 phosphorylation at Ser172 residue at 15 uM incubated for 1 hrs by Western blot analysis; assay type: cell-based; conditions: filed as activator
[19] = target: T1, Stimulator of interferon genes protein; test: Activation of cGAS-STING pathway in human THP1-Dual KO-cGAS cells assessed as induction of IRF3 phosphorylation at Ser396 residue at 15 uM incubated for 1 hrs by Western blot analysis; assay type: cell-based; conditions: filed as activator
[20] = target: T1, Stimulator of interferon genes protein; test: Activation of cGAS-STING pathway in human THP1-Dual KO-cGAS cells assessed as induction of p65 phosphorylation at Ser536 residue at 15 uM incubated for 1 hrs by Western blot analysis; assay type: cell-based; conditions: filed as activator
[21] = target: T1, Stimulator of interferon genes protein; test: Activation of cGAS-STING pathway in human THP1-Dual KO-cGAS cells assessed as induction of STAT3 phosphorylation at Tyr705 residue at 15 uM incubated for 1 hrs by Western blot analysis; assay type: cell-based; conditions: filed as activator
[22] = target: T1, Stimulator of interferon genes protein; test: Activation of cGAS-STING pathway in human THP1-Dual KO-STING cells assessed as induction of STING phosphorylation at Ser366 residue at 15 uM incubated for 1 hrs by Western blot analysis; assay type: cell-based
[23] = target: T1, Stimulator of interferon genes protein; test: Activation of cGAS-STING pathway in human THP1-Dual KO-STING cells assessed as induction of TBK1 phosphorylation at Ser172 residue at 15 uM incubated for 1 hrs by Western blot analysis; assay type: cell-based
[24] = target: T1, Stimulator of interferon genes protein; test: Activation of cGAS-STING pathway in human THP1-Dual KO-STING cells assessed as induction of IRF3 phosphorylation at Ser396 residue at 15 uM incubated for 1 hrs by Western blot analysis; assay type: cell-based
[25] = target: T1, Stimulator of interferon genes protein; test: Activation of cGAS-STING pathway in human THP1-Dual KO-STING cells assessed as induction of p65 phosphorylation at Ser536 residue at 15 uM incubated for 1 hrs by Western blot analysis; assay type: cell-based
[26] = target: T1, Stimulator of interferon genes protein; test: Activation of cGAS-STING pathway in human THP1-Dual KO-STING cells assessed as induction of STAT3 phosphorylation at Tyr705 residue at 15 uM incubated for 1 hrs by Western blot analysis; assay type: cell-based
[27] = target: T1, Stimulator of interferon genes protein; test: Activation of cGAS-STING pathway in human THP-1 cells assessed as stimulation of IFNB1 gene expression at 15 uM by RT-qPCR analysis; assay type: cell-based; conditions: filed as activator, time <= 8.0 hrs
[28] = target: T1, Stimulator of interferon genes protein; test: Activation of cGAS-STING pathway in human THP-1 cells assessed as stimulation of CXCL10 gene expression at 15 uM by RT-qPCR analysis; assay type: cell-based; conditions: filed as activator, time <= 8.0 hrs
[29] = target: T1, Stimulator of interferon genes protein; test: Activation of cGAS-STING pathway in human THP-1 cells assessed as stimulation of IL6 gene expression at 15 uM by RT-qPCR analysis; assay type: cell-based; conditions: filed as activator, time <= 8.0 hrs

Chain of Stimulator of interferon genes protein (Homo sapiens), Q86WV6 [UNDEFINED MUTATION] (Q86WV6 whole entry, looked up, stated change not applied): as the sequence (Q86WV6 whole entry) above

N#Cc1ccn(-c2ccc(C(=O)Nc3cc(F)c(Br)cc3C(=O)O)nn2)c1
ΔTm (Homo sapiens [1]): 1 °C
EC50 [2]: 44.2 µM

N#Cc1ccn(-c2ccc(C(=O)Nc3cc(F)c(Cl)cc3C(=O)O)nn2)c1
ΔTm (Homo sapiens [1]): 1.5 °C
EC50 [2]: 42.2 µM

N#Cc1ccn(-c2ccc(C(=O)Nc3cc(C#CC4CC4)c(F)cc3C(=O)O)nn2)c1
ΔTm (Homo sapiens [1]): -0.5 °C
EC50 [2]: 69.8 µM

N#Cc1ccn(-c2ccc(C(=O)Nc3cc(C4CC4)c(F)cc3C(=O)O)nn2)c1
ΔTm (Homo sapiens [1]): 1 °C
EC50 [2]: 29.5 µM

COc1cc(NC(=O)c2ccc(-n3ccc(C#N)c3)nn2)c(C(=O)O)cc1F
ΔTm (Homo sapiens [1]): 4 °C
EC50 [2]: 9.75 µM

CCCn1c(NC(=O)c2cc(C)nn2C)nc2cc(C(N)=O)cc(OC3COC3)c21
ΔTm (Homo sapiens [1]): 6 °C
ΔTm [3]: 4.5 °C
ΔTm (Homo sapiens [4]): 5 °C
ΔTm (Homo sapiens [5]): 5.5 °C
ΔTm [6]: 5.5 °C
IC50 [7]: 3.16 µM
IC50 [8]: 2.78 µM
IC50 [9]: 3.66 µM
IC50 [10]: 3.82 µM
IC50 [11]: 3.75 µM

N#Cc1ccn(-c2ccc(C(=O)Nc3cc(F)ccc3C(=O)O)nn2)c1
ΔTm (Homo sapiens [1]): 0 °C
EC50 [2]: 48.1 µM

Cc1cc(NC(=O)c2ccc(-n3ccc(C#N)c3)nn2)c(C(=O)O)cc1F
ΔTm (Homo sapiens [1]): 1.5 °C
EC50 [2]: 46 µM

COc1cc(C(=O)O)c(NC(=O)c2ccc(-n3ccc(C#N)c3)nn2)cc1F
ΔTm (Homo sapiens [1]): 0 °C
EC50 [2]: 44.3 µM

N#Cc1ccn(-c2ccc(C(=O)Nc3cc(F)c(F)cc3C(=O)O)nn2)c1
ΔTm (Homo sapiens [1]): 3.5 °C

O=C(Nc1cc(F)c(F)cc1C(=O)O)c1ccc(-n2ccnc2)nn1
ΔTm (Homo sapiens [1]): 8.5 °C
ΔTm (Homo sapiens [4]): 14 °C
ΔTm (Homo sapiens [5]): 7.5 °C
ΔTm [6]: 10 °C
IC50 [8]: 4.89 µM
IC50 [9]: 0.73 µM
IC50 [10]: 5.54 µM
IC50 [11]: 2.2 µM

N#Cc1ccn(-c2ccc(C(=O)Nc3cc(Cl)c(F)cc3C(=O)O)nn2)c1
ΔTm (Homo sapiens [1]): 6.5 °C
EC50 [2]: 5.17 µM

CCc1cc(C(=O)O)c(NC(=O)c2ccc(-n3ccc(C#N)c3)nn2)cc1F
ΔTm (Homo sapiens [1]): 0.5 °C
EC50 [2]: 34.9 µM

N#Cc1ccn(-c2ccc(C(=O)Nc3cc(Br)c(Cl)cc3C(=O)O)nn2)c1
ΔTm (Homo sapiens [1]): 8.5 °C
EC50 [2]: 2.53 µM
ΔTm [3]: 6.5 °C
ΔTm (Homo sapiens [4]): 13.5 °C
ΔTm (Homo sapiens [5]): 7.5 °C
ΔTm [6]: 7 °C
IC50 [7]: 1.98 µM
IC50 [8]: 3.58 µM
IC50 [9]: 0.7 µM
IC50 [10]: 2.03 µM
IC50 [11]: 4.36 µM

C=Cc1cc(NC(=O)c2ccc(-n3ccc(C#N)c3)nn2)c(C(=O)O)cc1F
ΔTm (Homo sapiens [1]): 4.5 °C
EC50 [2]: 19.8 µM

C#Cc1cc(NC(=O)c2ccc(-n3ccc(C#N)c3)nn2)c(C(=O)O)cc1F
ΔTm (Homo sapiens [1]): 8 °C
EC50 [2]: 1.19 µM
ΔTm [3]: 6 °C
ΔTm (Homo sapiens [4]): 13 °C
ΔTm (Homo sapiens [5]): 7.5 °C
ΔTm [6]: 7.5 °C
IC50 [7]: 3.31 µM
IC50 [8]: 3.55 µM
IC50 [9]: 0.91 µM
IC50 [10]: 3.74 µM
IC50 [11]: 4.72 µM
Activity [12]: Active
Activity [13]: Active
Activity [14]: Active
Activity [15]: Active
Activity [16]: Active
Activity [17]: Active
Activity [18]: Active
Activity [19]: Active
Activity [20]: Active
Activity [21]: Active
Activity [22]: inactive
Activity [23]: inactive
Activity [24]: inactive
Activity [25]: inactive
Activity [26]: inactive
Activity [27]: Active
Activity [28]: Active
Activity [29]: Active

N#Cc1ccn(-c2ccc(C(=O)Nc3ccc(F)cc3C(=O)O)nn2)c1
ΔTm (Homo sapiens [1]): 0.5 °C
EC50 [2]: > 100 µM

CC#Cc1cc(NC(=O)c2ccc(-n3ccc(C#N)c3)nn2)c(C(=O)O)cc1F
ΔTm (Homo sapiens [1]): 0.5 °C
EC50 [2]: 35 µM

N#Cc1ccn(-c2ccc(C(=O)Nc3cc(Br)c(F)cc3C(=O)O)nn2)c1
ΔTm (Homo sapiens [1]): 6 °C
EC50 [2]: 4.86 µM

N#Cc1ccn(-c2ccc(C(=O)Nc3cc(Cl)c(Br)cc3C(=O)O)nn2)c1
ΔTm (Homo sapiens [1]): 6.5 °C
EC50 [2]: 5.11 µM

N#Cc1ccn(-c2ccc(C(=O)Nc3cc(Cl)c(Cl)cc3C(=O)O)nn2)c1
ΔTm (Homo sapiens [1]): 7.5 °C
EC50 [2]: 2.99 µM
ΔTm [3]: 6 °C
ΔTm (Homo sapiens [4]): 13.5 °C
ΔTm (Homo sapiens [5]): 7.5 °C
ΔTm [6]: 6.5 °C
IC50 [7]: 2.42 µM
IC50 [8]: 2.77 µM
IC50 [9]: 0.76 µM
IC50 [10]: 2.56 µM
IC50 [11]: 4.58 µM

N#Cc1ccn(-c2ccc(C(=O)Nc3cc(Br)c(Br)cc3C(=O)O)nn2)c1
ΔTm (Homo sapiens [1]): 6.5 °C
EC50 [2]: 6.33 µM
